Data taken from PMC7789494 (Microbial Cell Factories, 2021).

Target: T1, PcCDHTr (Phanerodontia chrysosporium, UniProt Q01738)
T1 construct: gene CDH-1; full two-domain flavocytochrome, native signal peptide (cleaved), untagged, secreted by Trichoderma reesei delta-xyr1; 83 kDa by SDS-PAGE
Assay: TCA precipitation, released FAD by A450
Type: binding
Conditions: co-purified cofactor

T1 sequence (Q01738 19-773): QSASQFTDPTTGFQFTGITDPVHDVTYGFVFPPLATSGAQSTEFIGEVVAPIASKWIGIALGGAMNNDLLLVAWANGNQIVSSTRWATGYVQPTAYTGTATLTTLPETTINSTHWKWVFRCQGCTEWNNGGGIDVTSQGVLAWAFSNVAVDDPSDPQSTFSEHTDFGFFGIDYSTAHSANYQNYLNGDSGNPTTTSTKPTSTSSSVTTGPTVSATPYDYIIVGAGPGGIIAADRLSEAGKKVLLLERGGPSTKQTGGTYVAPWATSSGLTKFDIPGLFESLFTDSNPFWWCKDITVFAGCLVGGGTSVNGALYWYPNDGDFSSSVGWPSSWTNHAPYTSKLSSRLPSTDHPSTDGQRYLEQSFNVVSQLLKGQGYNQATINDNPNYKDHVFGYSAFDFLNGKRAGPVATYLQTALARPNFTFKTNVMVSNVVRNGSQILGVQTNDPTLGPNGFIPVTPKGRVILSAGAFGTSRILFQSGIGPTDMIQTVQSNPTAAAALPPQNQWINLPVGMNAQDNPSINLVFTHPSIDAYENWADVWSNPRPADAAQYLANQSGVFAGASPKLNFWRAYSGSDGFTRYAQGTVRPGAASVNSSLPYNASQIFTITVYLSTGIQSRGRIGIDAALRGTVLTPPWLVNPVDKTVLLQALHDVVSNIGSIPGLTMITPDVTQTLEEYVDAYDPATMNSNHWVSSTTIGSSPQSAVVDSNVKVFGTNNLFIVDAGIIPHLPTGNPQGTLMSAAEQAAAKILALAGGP

FAD occupancy: 70%
Compound: Cc1cc2nc3c(=O)[nH]c(=O)nc-3n(C[C@H](O)[C@H](O)[C@H](O)COP(=O)(O)OP(=O)(O)OC[C@H]3O[C@@H](n4cnc5c(N)ncnc54)[C@H](O)[C@@H]3O)c2cc1C [FAD]
